Measured values reported in patent publication US20240408093A1, “HETEROBIFUNCTIONAL COMPOUNDS AND THEIR USE IN TREATING DISEASE” (HALDA THERAPEUTICS OPCO, INC., priority 2022, published 2024).
pIC50: −log10 of the molar value. Where two headings read alike, the source gives them in different places.

Legend:
[1] = tested on: HEK293 cells (ATCC CRL-1573); experiment: Cellular growth inhibition assay, HEK293 cells (Example 16); assay type: cell-based; conditions: Homo sapiens, 72 hours, CellTiter-Glo 2.0
Method: (§1) Exemplary compounds were tested for ability to inhibit the proliferation of HEK293 cells (ATCC CRL-1573) and HeLa cells (ATCC CCL-2).
(§2) HEK293 and HeLa cells were cultured in DMEM (Gibco 11995), supplemented with 10% Heat-inactivated FBS (Gibco A38400-01) and 1% Penicillin/Streptomycin (Gibco 15140-122) at 37° C. with 5% CO2 in a humidified tissue culture incubator. Cells were seeded at 500 cells/well in 384-well, Poly-D-lysine-treated blackplates (Perkin Elmer 6007710) in 25 μL media lacking selection for 18-24 hours. Plates were spun at 300 g for 30 seconds and stored in the incubator overnight. After 24 hours, a 25 μL aliquot of compound-containing medium was added in each well, at a final top concentration of 10 μM test compound, with 3-fold dilutions, using DMSO alone as a negative control. Plates were then spun at 300×g for 3 minutes again and cultured at 37° C. with 5% CO2. After 72 hours, cell viability was quantified with CellTiter-Glo 2.0 (Promega). After equilibrating cell plates at room temperature for 30 minutes, 25 μL CellTiter-Glo 2.0 reagent was dispensed into each well. Plates were mixed on a shaker for 2 minutes at 500 rpm, followed by a 10-minute incubation at room temperature. Luminescence readings were measured with an EnVision Plate Reader (Perkin Elmer). Data was normalized to DMSO treated cell wells. A four-parameter non-linear regression curve fit was applied to dose-response data in Prism to determine the half maximal growth inhibitory concentration (GI50) of each compound.

[2] = biological target: T1, GSPT1 (Homo sapiens, UniProt P15170+Q96SW2); experiment: GSPT1 HiBiT degradation assay; assay type: cell-based; conditions: HEK293 LgBiT GSPT1 HiBiT cells, 6 hours
T1 construct: host or cells: HEK293 LgBiT / GSPT1 HiBiT CRISPR knock-in
Description: Promega developed a HEK293 cell line that constitutively expresses LgBiT protein and GSPT1_HiBiT fusion protein. When both proteins are present, the HiBiT portion of the fusion protein combines with LgBiT protein to form a functional luciferase enzyme. Endurazine, a cell permeable small molecule, is converted by cellular esterases into furimazine, which the luciferase enzyme uses as a substrate to generate luminescence. When GSPT1 is degraded, the HiBit is also degraded. This prevents formation of fully functional luciferase, leading to a loss in luminescence. GSPT1 degradation therefore correlates with a decrease in luminescence and can be measured continuously over time. The concentration of compound at which 50% GSPT1 degradation occurs (DC50) may be calculated using this system.
HEK293 LgBiTGSPT1 HiBiT CRISPR Knock-in cells were cultured in DMEM Media supplemented with 10% Heat-inactivated FBS, 1% Penicillin/Streptomycin, 200 μg/mL hygromycin and stored in a humidified incubator set at 37° C. and 5% CO2. 18-24 hours prior to compound treatment, cells were seeded at 1000 cells/well in a 384-well tissue culture-treated white plates in 25 μL media lacking selection for 18-24 hours. The plates were spun at 300 g for 30 seconds and stored in the incubator overnight. After 24 hours, compounds are titrated in DMSO and added to media supplemented with endurazine substrate. A 25 μL aliquot of 2× compound/endurazine in media is then added to the 384-well microplate with seeded cells. (Endurazine is used at a final concentration of 0.5×). The plate was spun at 300 g for 30 seconds and stored in the incubator. After 6 hours, the plate was read on a Perkin Elmer MultiMode Plate Reader Envision 2105 to measure luminescence signal. Data were plotted in Prism (Graphpad) and the concentration of compound at which 50% GSPT1 degradation occurs (DC50) was calculated.

[3] = tested on: GSPT1; experiment: Payload release assay (DC50 readout), GSPT1 degradation in the presence of recombinant target protein; assay type: cell-based; conditions: I-series compounds (GSPT1 readout inferred)
Method: Exemplary compounds were tested for ability to cause degradation of CCNK or GSPT1 in the presence of recombinant target protein.
HEK293 LgBiT/GSPT1 HiBiT CRISPR Knock-in cells (Promega) were cultured in DMEM (Gibco 11995), supplemented with 10% Heat-inactivated FBS (Gibco A38400-01) and 1% Penicillin/Streptomycin (Gibco 15140-122) and 200 Vg/ml Hygromycin B (Gibco 10-687-010) at 37° C. with 5% CO2 in a humidified tissue culture incubator. HEK293 LgBiT/CCNK HiBiT cells (in-house, described above) were cultured in DMEM (Gibco 11995), supplemented with 10% Heat-inactivated FBS (Gibco A38400-01) and 1% Penicillin/Streptomycin (Gibco 15140-122) 200 Vg/ml Hygromycin B (Gibco 10-687-010), and 1 Vg/ml Puromycin Dihydrochloride (Thermo A1113803) at 37° C. with 5% CO2 in a humidified tissue culture incubator. Cells were seeded (1000 cells/well for HEK293 LgBiT/GSPT1 HiBiT cells or 3000 cells/well for HEK293 LgBiT/CCNK HiBiT cells) 384-well, tissue culture-treated white plates (Perkin Elmer 6007680) in 10 μL media lacking selection for 18-24 hours. Plates were spun at 300 g for 30 seconds and stored in the incubator overnight. After 24 hours, a 5 μL aliquot of recombinant target protein (final concentration of either 5 μM KRAS amino acids 1-169, C51S, C80L, C118S, G12C or 3 μM EGFR amino acids 696-1022 or 3 μM EGFR amino acids 696-1022, T790M, L858R) was added to wells, followed immediately by a 5 μL aliquot of 4× compound-containing medium supplemented with Endurazine Substrate (Promega N2570) was added in each well, at a final top concentration of 10 μM test compound and 0.5× Endurazine, with 4-fold dilutions, using DMSO alone as a negative control. Plates were then spun at 300×g for 3 minutes again and cultured at 37° C. with 5% CO2. After 6 hours the plate was read on Envision MultiMode Plate Reader 2105 (Perkin Elmer) to measure luminescence signal. Data was normalized to DMSO treated cell wells. A four-parameter non-linear regression curve fit was applied to dose-response data in Prism to determine the half maximal growth inhibitory concentration (GI50) of each compound.

[4] = biological target: KRAS G12C (Homo sapiens, UniProt P01116, G12C); experiment: KRAS G12C nucleotide exchange assay (SOS1-mediated, HTRF); assay type: biochemical; design: GST-tagged KRAS G12C (amino acids 2-169); conditions: 1 hr pre-incubation
Method: KRAS target engagement (IC50 determination) was performed using a KRAS G12C nucleotide exchange assay. Specifically, compounds were tested against KRAS G12C in 10-point concentration IC50 mode with 3-fold serial dilution at a starting concentration of 10 μM. ARS1620 was used as a control.
Briefly, GST-tagged KRAS G12C (amino acids 2-169) was mixed with anti-GST Tb antibody (1.5× solution) and 10 μL was delivered to reaction wells. Compounds were delivered using an acoustic dispenser (Echo, Labcyte) and pre-incubated with protein for 1 hr at RT. KRAS/anti-GST Tb Ab/compound mixture was incubated for 1 hour at room temperature. A 3× solution of SOS1 (amino acids 564-1049) and GTP-DY-647P1 (GTP*) was prepared in reaction buffer. A 5 μL aliquot of SOS1/GTP* solution was added to reaction wells to initiate the exchange reaction. No-SOS1 reaction or max compound concentration was used as blank. The final concentrations of KRAS G12C, SOS1, and GTP* were 30 nM, 20 nM, and 0.15 μM, respectively. SOS1 mediated exchange of GDP to GTP-DY-647P was measured using HTRF (Ex/Em=(320-75/665-7.5; 615-8.5)) using an Envision Plate Reader (Perkin Elmer). IC50 determination was performed using a Sigmoidal dose response (variable slope) equation.

[5] = biological target: T2, BTK (Homo sapiens, UniProt Q06187); experiment: Release of effector protein ligand from heterobifunctional compounds, BTK; assay type: biochemical
T2 construct: BTK (amino acids 387-659)
Method: Exemplary heterobifunctional compounds were evaluated for the ability to release an effector protein ligand in the presence of KRAS G12C, BTK, or EGFR T790M L858R target proteins.
Samples for mass spectrometry for KRAS G12C, BTK, and EGFR T790M L858R were prepared as described above for the intact mass spectrometry target engagement experiment, respectively, except rather than flash-freezing, 20 μL of sample was quenched with 50 μL of 100% acetonitrile. As well, a buffer-only control was used to detect latent release of effector protein ligand analyte. Internal standard (IS) solution consisted of 200 ng/mL propranolol and 50 ng/mL diclofenac in methanol:water 1:1 (v/v). A 4-point calibration curve (calibration standard (CS)) consisting of each analyte was made at final concentrations of 3 nM, 30 nM, 300 nM, and 3000 nM. Unknown samples were diluted such that the unknown analyte concentration was in the linear range of the calibration curve.
Samples for all proteins were prepared and analyzed from the following:
Samples were further analyzed with AB Sciex Triple Quad 5500 system coupled with Shimadzu Prominence HPLC.

[6] = tested on: HeLa cells (ATCC CCL-2); experiment: Cellular growth inhibition assay, HeLa cells (Example 16); assay type: cell-based; conditions: Homo sapiens, 72 hours, CellTiter-Glo 2.0
Method: as §1, §2

[7] = 0 μM recombinant KRAS G12C, read-out: DC50 at 0 μM KRAS G12C
[8] = 5 μM recombinant KRAS G12C, read-out: DC50 at 5 μM KRAS G12C

T1 sequence (P15170 whole entry): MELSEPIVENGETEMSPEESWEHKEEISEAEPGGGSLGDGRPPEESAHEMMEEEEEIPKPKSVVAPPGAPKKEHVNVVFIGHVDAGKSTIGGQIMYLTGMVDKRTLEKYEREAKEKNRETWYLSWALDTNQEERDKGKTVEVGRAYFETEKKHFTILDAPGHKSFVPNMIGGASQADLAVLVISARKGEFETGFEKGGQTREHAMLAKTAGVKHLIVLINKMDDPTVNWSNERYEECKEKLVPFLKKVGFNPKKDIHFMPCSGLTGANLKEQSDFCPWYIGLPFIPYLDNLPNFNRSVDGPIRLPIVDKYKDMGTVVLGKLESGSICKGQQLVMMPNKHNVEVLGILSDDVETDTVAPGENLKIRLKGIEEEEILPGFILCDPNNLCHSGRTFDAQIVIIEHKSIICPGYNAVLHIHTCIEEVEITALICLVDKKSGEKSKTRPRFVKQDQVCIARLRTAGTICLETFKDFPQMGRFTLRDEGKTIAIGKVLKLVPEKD
T1 sequence (Q96SW2 whole entry): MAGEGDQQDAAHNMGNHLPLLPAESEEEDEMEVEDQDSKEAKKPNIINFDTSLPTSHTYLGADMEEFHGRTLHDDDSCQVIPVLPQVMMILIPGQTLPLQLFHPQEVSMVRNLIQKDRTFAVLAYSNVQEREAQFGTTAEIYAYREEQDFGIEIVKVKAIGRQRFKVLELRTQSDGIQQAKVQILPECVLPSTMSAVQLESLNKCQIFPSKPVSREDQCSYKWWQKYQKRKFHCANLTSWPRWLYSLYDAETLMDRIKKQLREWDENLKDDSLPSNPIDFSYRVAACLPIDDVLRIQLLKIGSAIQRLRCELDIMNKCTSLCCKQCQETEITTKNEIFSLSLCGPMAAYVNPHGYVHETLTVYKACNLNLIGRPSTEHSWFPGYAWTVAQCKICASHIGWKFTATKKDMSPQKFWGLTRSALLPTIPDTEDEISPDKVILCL
T1 sequence (Q16531 whole entry partner): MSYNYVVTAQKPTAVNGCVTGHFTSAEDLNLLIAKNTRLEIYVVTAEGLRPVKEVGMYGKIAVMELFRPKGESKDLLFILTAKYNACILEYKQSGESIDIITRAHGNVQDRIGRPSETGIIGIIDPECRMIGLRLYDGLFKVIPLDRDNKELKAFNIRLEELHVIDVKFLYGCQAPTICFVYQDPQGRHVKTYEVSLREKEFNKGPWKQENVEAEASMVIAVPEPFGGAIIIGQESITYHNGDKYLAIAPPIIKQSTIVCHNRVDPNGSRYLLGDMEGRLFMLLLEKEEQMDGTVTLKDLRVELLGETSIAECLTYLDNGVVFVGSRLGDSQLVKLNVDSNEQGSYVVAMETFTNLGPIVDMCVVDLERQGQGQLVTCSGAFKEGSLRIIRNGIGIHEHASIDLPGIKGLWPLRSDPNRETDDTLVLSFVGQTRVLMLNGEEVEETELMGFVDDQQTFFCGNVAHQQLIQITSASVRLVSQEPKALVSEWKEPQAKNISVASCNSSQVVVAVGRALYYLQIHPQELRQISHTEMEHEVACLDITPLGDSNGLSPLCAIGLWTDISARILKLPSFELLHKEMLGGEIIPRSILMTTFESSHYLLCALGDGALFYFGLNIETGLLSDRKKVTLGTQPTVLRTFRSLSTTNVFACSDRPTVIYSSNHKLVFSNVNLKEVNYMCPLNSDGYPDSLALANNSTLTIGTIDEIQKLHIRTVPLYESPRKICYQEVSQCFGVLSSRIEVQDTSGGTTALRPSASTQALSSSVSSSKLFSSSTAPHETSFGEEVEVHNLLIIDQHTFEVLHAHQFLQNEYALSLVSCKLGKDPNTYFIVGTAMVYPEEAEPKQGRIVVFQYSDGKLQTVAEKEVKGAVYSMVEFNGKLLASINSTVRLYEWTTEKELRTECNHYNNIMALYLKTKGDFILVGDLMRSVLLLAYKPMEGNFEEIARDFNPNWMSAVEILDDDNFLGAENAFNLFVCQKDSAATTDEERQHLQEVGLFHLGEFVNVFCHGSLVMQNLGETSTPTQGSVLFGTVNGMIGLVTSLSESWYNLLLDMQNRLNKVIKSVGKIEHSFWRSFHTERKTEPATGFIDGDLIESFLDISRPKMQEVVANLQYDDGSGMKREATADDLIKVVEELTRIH
T2 sequence (Q06187 387-659): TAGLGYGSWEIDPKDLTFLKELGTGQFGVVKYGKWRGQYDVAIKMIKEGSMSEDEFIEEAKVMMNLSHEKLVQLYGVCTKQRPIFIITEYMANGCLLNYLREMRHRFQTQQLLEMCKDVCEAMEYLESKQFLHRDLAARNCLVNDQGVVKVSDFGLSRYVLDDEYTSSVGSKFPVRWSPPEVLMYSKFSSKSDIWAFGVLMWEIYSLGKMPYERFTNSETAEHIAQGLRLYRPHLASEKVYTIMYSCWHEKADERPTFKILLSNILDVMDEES
Sequence of KRAS G12C (P01116 2-169 isoform P01116-2 G12C): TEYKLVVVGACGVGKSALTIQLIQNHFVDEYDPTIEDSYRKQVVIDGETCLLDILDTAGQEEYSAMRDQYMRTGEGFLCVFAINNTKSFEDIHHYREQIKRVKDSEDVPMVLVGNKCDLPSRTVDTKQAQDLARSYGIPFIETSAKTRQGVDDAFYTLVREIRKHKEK

Compound | GI50 [1] | DC50 [2] | DC50 [3, 7] | DC50 [3, 8] | pIC50 [4] | other results
C=C(COc1cc(C(F)(F)C(=O)NCc2ccc3c(c2)CN(C2CCC(=O)NC2=O)C3=O)ccc1Cl)C(=O)N1CCN(c2nc(OC[C@@H]3CCCN3C)nc3c2CCN(c2cccc4cccc(Cl)c24)C3)C[C@@H]1CC#N (some centres unmarked) [Compound I-81] | 1500 to 10000 nM | 50 to 500 nM | 250 to 5000 nM | > 10000 nM | > 7.00 | 
C=C(COc1ccc2nc3c(c(CC)c2c1)Cn1c-3cc2c(c1=O)COC(=O)[C@]2(O)CC)C(=O)N1CCC[C@@H](n2nc(-c3ccc(Oc4ccccc4)cc3)c3c(N)ncnc32)C1 [Compound A1-6] |  |  |  |  |  | Concentration of Effector Protein Ligand ([5]; Matrix Buffer + Protein (BTK), Time 0 h, detected A1-7): 790 nM; Concentration of Effector Protein Ligand ([5]; Matrix Buffer + Protein (BTK), Time 1 h, detected A1-7): 797 nM; Concentration of Effector Protein Ligand ([5]; Matrix Buffer + Protein (BTK), Time 4 h, detected A1-7): 641 nM; Concentration of Effector Protein Ligand ([5]; Matrix Buffer + Protein (BTK), Time 22 h, detected A1-7): 770 nM; Concentration of Effector Protein Ligand ([5]; Matrix Buffer, Time 0 h, detected A1-7): 104 nM; Concentration of Effector Protein Ligand ([5]; Matrix Buffer, Time 1 h, detected A1-7): 92.6 nM; Concentration of Effector Protein Ligand ([5]; Matrix Buffer, Time 4 h, detected A1-7): 66.4 nM; Concentration of Effector Protein Ligand ([5]; Matrix Buffer, Time 22 h, detected A1-7): 86.4 nM
C=C(CN1C(=O)CCC(N2Cc3cc(CNC(=O)Nc4cccc(Cl)c4O)ccc3C2=O)C1=O)C(=O)N1CCN(c2nc(OC[C@@H]3CCCN3C)nc3c2CCN(c2cccc4cccc(Cl)c24)C3)C[C@@H]1CC#N (some centres unmarked) [Compound I-83] | 1500 to 10000 nM | 500 to 2500 nM | 250 to 5000 nM | > 10000 nM | 5.30 to 7.00 | 
C=C(COc1cc(Cl)cc(NC(=O)NCc2ccc3c(c2)CN(C2CCC(=O)NC2=O)C3=O)c1)C(=O)N1CC(n2c(=O)c3cc(-c4cc(O)cc5ccccc45)ccc3n2C)C1 (centres unmarked) [Compound I-57] | < 500 nM | 50 to 500 nM | < 250 nM | < 250 nM | < 5.00 | GI50 [6]: 1500 to 10000 nM
C=C(COc1cc(Cl)cc(NC(=O)NCc2ccc3c(c2)CN(C2CCC(=O)NC2=O)C3=O)c1)C(=O)N1CCN(c2ncnc3c(F)c(-c4c(O)cccc4F)c(Cl)cc23)CC1 (centres unmarked) [Compound I-43] | < 500 nM | 50 to 500 nM |  |  | < 5.00 | GI50 [6]: 500 to 1500 nM
C=C(Cn1cc(CNc2cc(N3CCCC[C@H]3CCO)nc3c(CC)cnn23)ccc1=O)C(=O)N(C)CCOc1c(N)ncnc1-c1cc(F)cc(NC(=O)c2ccc(C3CC3)cc2F)c1C [Compound A1-5] |  |  |  |  |  | Concentration of Effector Protein Ligand ([5]; Matrix Buffer + Protein (BTK), Time 0 h, detected A1-3): 51.8 nM; Concentration of Effector Protein Ligand ([5]; Matrix Buffer + Protein (BTK), Time 1 h, detected A1-3): 72.3 nM; Concentration of Effector Protein Ligand ([5]; Matrix Buffer + Protein (BTK), Time 4 h, detected A1-3): 118 nM; Concentration of Effector Protein Ligand ([5]; Matrix Buffer + Protein (BTK), Time 22 h, detected A1-3): 164 nM; Concentration of Effector Protein Ligand ([5]; Matrix Buffer, Time 0 h, detected A1-3): 44.9 nM; Concentration of Effector Protein Ligand ([5]; Matrix Buffer, Time 1 h, detected A1-3): 49 nM; Concentration of Effector Protein Ligand ([5]; Matrix Buffer, Time 4 h, detected A1-3): 52.4 nM; Concentration of Effector Protein Ligand ([5]; Matrix Buffer, Time 22 h, detected A1-3): 80.5 nM
C=C(COc1cc([N+](=O)[O-])c(Cl)cc1NC(=O)NCc1ccc2c(c1)CN(C1CCC(=O)NC1=O)C2=O)C(=O)N1CCN(c2nc(OC[C@@H]3CCCN3C)nc3c2CCN(c2cccc4cccc(Cl)c24)C3)C[C@@H]1CC#N (some centres unmarked) [Compound I-82] | > 10000 nM | > 2500 nM | > 10000 nM | 5000 to 10000 nM | 5.30 to 7.00 | 
